This is an account of results in BindingDB's records for doi:10.1016/j.bmc.2016.11.016 (University of Kaiserslautern, 2017).

Each structure is given as a SMILES string. Some results are limits rather than exact numbers.

The target in this experiment is T1, Signal transducer and activator of transcription 1-alpha/beta (Homo sapiens, UniProt P42224).
T1 sequence (P42224 whole entry): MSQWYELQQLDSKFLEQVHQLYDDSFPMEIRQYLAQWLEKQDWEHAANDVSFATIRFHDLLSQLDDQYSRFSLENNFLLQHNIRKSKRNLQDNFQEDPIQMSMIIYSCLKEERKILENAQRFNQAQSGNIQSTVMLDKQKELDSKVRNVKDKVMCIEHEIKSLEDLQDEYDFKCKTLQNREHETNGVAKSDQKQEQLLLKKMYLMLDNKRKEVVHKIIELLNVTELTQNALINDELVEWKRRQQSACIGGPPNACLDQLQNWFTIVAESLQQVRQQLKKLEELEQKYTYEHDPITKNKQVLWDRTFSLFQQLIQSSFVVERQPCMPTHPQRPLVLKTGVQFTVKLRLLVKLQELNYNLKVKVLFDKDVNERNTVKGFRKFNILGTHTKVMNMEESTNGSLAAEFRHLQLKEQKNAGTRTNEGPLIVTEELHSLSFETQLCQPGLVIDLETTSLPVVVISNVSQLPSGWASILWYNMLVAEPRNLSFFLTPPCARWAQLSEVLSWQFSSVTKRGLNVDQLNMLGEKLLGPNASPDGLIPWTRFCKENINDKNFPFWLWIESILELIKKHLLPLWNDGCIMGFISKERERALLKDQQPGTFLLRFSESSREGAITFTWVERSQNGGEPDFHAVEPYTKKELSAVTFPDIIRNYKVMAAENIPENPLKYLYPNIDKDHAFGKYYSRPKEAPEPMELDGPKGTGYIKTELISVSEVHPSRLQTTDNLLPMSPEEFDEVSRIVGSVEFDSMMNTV
As to the kind of experiment: Inhibition of Stat1 (unknown origin) expressed in LPS/INF-gamma-stimulated human MONO-MAC-6 cells assessed as reduction in GAS dependent transcription activity measured after 4 hrs by luciferase reporter gene assay.
A word on the IC50: it is the concentration needed to halve the response being measured. In the case of `C=C[C@H]1CC[C@]23C[C@@H]4[C@H](C)[C@@H](O)[C@H]5O[C@@]45[C@@]2(C)CC(=O)[C@]13C`, the IC50 was over 50000 nM.
As to `CC(C)[C@H]1CC[C@]23C[C@@H]4[C@H](C)C(=O)[C@H]5O[C@]54[C@@]2(C)CC(=O)[C@]13C`, the concentration for half-maximal inhibition (IC50) worked out at 2000 nM.
As to `CC(C)[C@H]1CC[C@]23C[C@@H]4[C@H](C)C(=O)[C@H]5O[C@]54[C@@]2(C)[C@@H](O)C(=O)[C@]13C`, the IC50 turned out to be 7000 nM.
As for `C=C[C@H]1CC[C@]23C[C@@H]4[C@H](C)C(=O)[C@H]5O[C@]54[C@@]2(C)C[C@H](O)[C@]13C`, the figure is 2000 nM.
